Q: For `COc1cc(CC(=O)N2C[C@@H](Oc3ccc(C(=O)O)cc3)C[C@H]2COc2ccc(C(=O)O)cc2)ccc1NC(=O)Nc1ccccc1C` [Compound 116, 4-[(4S)-(4-carboxyphenoxy)-1-[3-methoxy-4-[N′-(2-methylphenyl)uriedo]phenylacetyl]-(2S)-pyrrolidinylmethoxy]benzoic acid], which melting point is on record?
A: The melting point was 154 to 159 °C.

Q: Which melting point does the source give for `COc1cc(CC(=O)N(C)CCOc2ccc(C(=O)O)cc2N)ccc1NC(=O)Nc1ccccc1C` [Compound 290, 3-amino-4-[[2-[3-methoxy-4-[N′-(2-methylphenyl)ureido]phenylacetyl]methylamino]ethoxy]benzoic acid] here?
A: Its melting point is 125 to 130 °C.

Q: With `COc1cc(CC(=O)N2CCC[C@H]2COc2ccc(C(=O)O)cc2OC)ccc1NC(=O)Nc1ccccc1F` (stereo in doubt) [Compound 39, 4-[1-[4-[N′-(2-fluorophenyl)ureido]-3-methoxyphenylacetyl]-2-pyrrolidinyl]methoxy-3-methoxy benzoic acid] as the compound, how does the melting point read?
A: The melting point was 140 to 144 °C.

Q: Which melting point does the source give for `COc1cc(CC(=O)N2CSC[C@H]2COc2ccc(C(=O)O)cc2)ccc1NC(=O)Nc1ccccc1Cl` (stereo in doubt) [Compound 169, 4-[3-[4-[N′-(2-chlorophenyl)ureido]-3-methoxyphenylacetyl]-4-thiazolidinyl]methoxybenzoic acid] here?
A: The melting point was 126 to 129 °C.

Q: For `COc1cc(CC(=O)N[C@@H](C)COc2ccc(C(=O)O)cc2)ccc1NC(=O)Nc1ccccc1C` [Compound 272, (S)-4-[2-[3-methoxy-4-[N′-(2-methylphenyl)ureido]phenylacetylamino]-1-propoxy]benzoic acid], which melting point is on record?
A: Its melting point is 198 to 201 °C.

Q: For `COc1cc(C(=O)O)ccc1OCc1csc(Cc2ccc(NC(=O)Nc3ccccc3C)cc2)n1` [Compound 41, 3-methoxy-4-[2-[4-[N′-(2-methylphenyl)ureido]benzyl]4-thiazolyl]methoxybenzoic acid], which melting point is on record?
A: The melting point was 243 to 245 °C.

Q: For `COc1cc(CC(=O)N(C)CCOc2ccc(C(=O)O)cc2N)ccc1NC(=O)Nc1ccccc1F` [Compound 292, 3-amino-4-[[2-[3-methoxy-4-[N′-(2-fluorophenyl)ureido]phenylacetyl]methylamino]ethoxy]benzoic acid], which melting point is on record?
A: The melting point was 125 to 130 °C.

Q: With `COc1cc(CC(=O)N2CC(N)C[C@H]2COc2ccc(C(=O)O)cc2)ccc1NC(=O)Nc1ccccc1C` (stereo in doubt) [Compound 151, 4-[trans-4-amino-1-[3-methoxy-4-[N′-(2-methylphenyl)ureido]phenylacetyl]-(2S)-pyrrolidinyl]methoxybenzoic acid] as the compound, how does the melting point read?
A: Its melting point is 170 to 171 °C.

Q: Which melting point does the source give for `COc1cc(CC(=O)N(C)[C@@H](C)COc2ccc(C(=O)O)cc2Cl)ccc1NC(=O)Nc1ccccc1F` [Compound 283, (S)-3-chloro-4-[2-[N-methyl-N-[3-methoxy-4-[N′-(2-fluorophenyl)ureido]phenylacetyl]amino]-1-propoxy]benzoic acid] here?
A: The melting point was 142 to 147 °C.

Q: With `Cc1cc(CC(=O)N2CCC[C@H]2COc2ccc(C(=O)O)cc2)ccc1NC(=O)Nc1ccccc1Cl` [Compound 81, 4-[1-[4-[N′-(2-chlorophenyl)ureido]-3-methylphenylacetyl]-(2S)-pyrrolidinyl]methoxybenzoic acid] as the compound, how does the melting point read?
A: The melting point was 122 to 124 °C.

Q: Which melting point does the source give for `COc1cc(CC(=O)NCCOc2ccc(C(=O)O)cc2[N+](=O)[O-])ccc1NC(=O)Nc1ccccc1C` [Compound 257, 3-nitro-4-[2-[3-methoxy-4-[N′-(2-methylphenyl)ureido]phenylacetyl]aminoethoxy]benzoic acid] here?
A: The melting point was 112 to 115 °C.

Q: For `COc1cc(CC(=O)N2C[C@H](OC)C[C@H]2COc2ccc(C(=O)O)cc2)ccc1NC(=O)Nc1ccccc1F` [Compound 136, 4-[1-[4-[N′-(2-fluorophenyl)ureido]-3-methoxyphenylacetyl]-(4R)-methoxy-(2S)-pyrrolidinylmethoxy]benzoic acid], which melting point is on record?
A: Its melting point is 111 to 116 °C.

Q: With `COc1cc(CC(=O)N2C[C@@H](O)C[C@H]2COc2ccc(C(=O)O)cc2)ccc1NC(=O)Nc1ccccc1Br` [Compound 108] as the compound, how does the melting point read?
A: The melting point was 143 to 151 °C (dec.).

Source: US7179819B2, “VLA-4 inhibitor compounds” (Daiichi Pharmaceutical Co., Ltd., priority 1999, dated 2007)
